# Tested on: GST-BIR3 fusion protein
# Test: FMAT solution phase assay: competition of GST-BIR3 off beads carrying biotinylated Smac 7-mer peptide
# Format: binding
# Settings: competing GST-BIR3 off beads with immobilized biotinylated Smac 7-mer peptide (AVPIAQK)
# Experimental: In order to measure the ability of the inventive compounds to bind the BIR3 peptide binding pocket, a solution phase assay on the FMAT technology platform is utilized. Biotinylated Smac 7-mer peptide (AVPIAQK, lysine ε-amino group is biotinylated) is immobilized on streptavidin coated beads. GST-BIR3 fusion protein is precipitated with FMAT beads and is detected using fluorescent tagged anti-GST antibodies. […] The IC50 for non-biotinylated Smac is 400 nM.
substance,measurement,value
non-biotinylated Smac: Non-biotinylated Smac peptide; the biotinylated bead-bound form is the Smac 7-mer AVPIAQK,IC50,400 nM
